Where two headings read alike, the source gives them in different places.
Assays:
[1] = molecular target: human P2X7 receptor (Homo sapiens (Human), UniProt Q99572); assay: Pore permeation assay (YO PRO dye uptake); type: cell-based
Description: Agonist-induced pore formation was determined by measuring cellular uptake of YO PRO fluorescence dye in HEK293 transfected with human P2X7 receptor. A HEK293 cell over expressing human P2X7 was harvested using HQTase reagent to detach the cells from T75 cm flask. The harvested cells are centrifuged @1200 rpm for 5 min at room temperature. The viability of cells was determined by Trypan blue dye and the cells are plated @10,000 cell/well in 50 ul volume in a 384W BD Poly lysine coated plate and incubated overnight at 37 C. […] The plate was centrifuged at 1000 rpm for 5 seconds and incubated at room temperature for 30 minutes. The uptake of YO PRO dye into the cells was measured using Envision Fluorescence plate reader instrument (Perkin Elmer).

[2] = molecular target: P2X7 (IL-1β release from THP-1 cells) (Homo sapiens (Human), UniProt Q99572); assay: IL-1β release assay; type: cell-based
P2X7 (IL-1β release from THP-1 cells), sequence (Q99572 whole entry): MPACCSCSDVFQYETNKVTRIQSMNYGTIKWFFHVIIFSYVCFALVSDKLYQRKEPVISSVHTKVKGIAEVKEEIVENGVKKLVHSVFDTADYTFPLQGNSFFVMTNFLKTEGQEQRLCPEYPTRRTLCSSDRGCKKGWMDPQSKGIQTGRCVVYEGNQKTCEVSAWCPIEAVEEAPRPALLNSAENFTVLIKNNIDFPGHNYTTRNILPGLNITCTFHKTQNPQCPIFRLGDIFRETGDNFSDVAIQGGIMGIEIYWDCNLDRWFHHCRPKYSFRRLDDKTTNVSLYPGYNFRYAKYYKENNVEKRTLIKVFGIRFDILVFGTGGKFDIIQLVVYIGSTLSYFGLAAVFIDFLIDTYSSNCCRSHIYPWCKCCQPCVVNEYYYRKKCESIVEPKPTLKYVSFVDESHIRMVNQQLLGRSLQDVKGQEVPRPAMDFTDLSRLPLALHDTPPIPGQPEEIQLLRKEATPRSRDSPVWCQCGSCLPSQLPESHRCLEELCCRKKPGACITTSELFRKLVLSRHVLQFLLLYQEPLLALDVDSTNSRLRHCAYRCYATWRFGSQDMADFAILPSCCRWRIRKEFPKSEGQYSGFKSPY
Description: IL-1β release assay: The activation of P2X7 by ATP leads to a fast transient activation of cells resulting in influx of Ca^2+ followed by conversion of pro-IL-1β to active IL-1β. The functional activity of P2X7 compounds was measured by the release of mature […] in the culture medium of THP-1 cells, detected by sandwich ELISA. […] THP-1 cells were harvested from the flask in 50 ml by centrifugation for 3 min at 100 g. The cells were resuspended to 2×10^5 cells/ml in medium supplemented with 0.5 μM PMA and incubated. The cells were washed and resuspended to 1.5×10^5 cells/ml in medium complemented with 10 ng/ml LPS, and the cells were primed for 4 h at 37° C., 5% CO2. After addition of 20 μL of prediluted test compounds, blank, standard and control reagents, cells were incubated for a further 20 min at 37° C. and stimulated with 0.8 mM BzATP for 30 minutes. The cells were centrifuged, supernatant was collected and the presence of mature IL-1β was detected using Dual human IL-1b kit following manufacturer's instruction. The tetrahydrobenzodiazepine analogs effectively modulated the activity of P2X7 in the cells as measured by the levels of pro-inflammatory cytokine IL-1β, which is released by the activation of P2X7 receptor.

[3] = THP-1 cells, LPS primed, 0.8 mM BzATP, mature IL-1β by sandwich ELISA, read-out: hTHP-1/IL-ib IC50
[4] = HEK293 transfected with human P2X7, BzATP 10 uM, YO PRO dye uptake, read-out: hP2X7 IC50

human P2X7 receptor, sequence (Q99572 whole entry): as above

COCCn1cc(C(=O)NCCc2ccc(F)cc2Cl)c2c(Cl)cccc21 [Compound 34, 4-Chloro-1-(2-methoxy-ethyl)-1H-indole-3-carboxylic acid [2-(4-fluoro-2-chloro-phenyl)-ethyl]-amide]
IC50 [1]: 101 to 500 nM | IC50 [2]: 101 to 500 nM

COCCn1cc(C(=O)NCC(C)c2ccccc2Cl)c2c(Cl)cccc21 (stereo not shown) [Compound 33, 4-chloro-N-(2-(2-chlorophenyl)propyl)-1-(2-methoxyethyl)-1H-indole-3-carboxamide]
IC50 [1]: 101 to 500 nM | IC50 [2, 3]: > 1000 nM

COCCn1cc(C(=O)NCC2(O)CCCCC2)c2c(Cl)cccc21 [Compound 19, 4-Chloro-1-(2-methoxy-ethyl)-1H-indole-3-carboxylic acid (1-hydroxy-cyclohexyl methyl)-amide]
IC50 [1]: 10 to 100 nM | IC50 [2]: 101 to 500 nM

CC1(C)CCCC(O)(CNC(=O)c2cn(C3COC3)c3cccc(Cl)c23)C1 (stereo not shown) [Compound 64, 4-Chloro-1-oxetan-3-yl-1H-indole-3-carboxylic acid (1-hydroxy-3,3-dimethyl-cyclohexylmethyl)-amide]
IC50 [1]: 10 to 100 nM | IC50 [2]: 10 to 100 nM

O=C(NCC1CCC(F)(F)CC1)c1cn(C2CCNC2)c2cccc(Cl)c12 (stereo not shown) [Compound 121, 4-chloro-N-((4,4-difluorocyclohexyl)methyl)-1-(pyrrolidin-3-yl)-1H-indole-3-carboxamide]
IC50 [1]: 10 to 100 nM | IC50 [2]: 10 to 100 nM

O=C(NCC1CCC(F)(F)CC1)c1cn(CCN2CCCCC2)c2cccc(Cl)c12 [Compound 193, 4-chloro-N-((4,4-difluorocyclohexyl)methyl)-1-(2-(piperidin-1-yl)ethyl)-1H-indole-3-carboxamide]
IC50 [1]: 10 to 100 nM | IC50 [2]: 10 to 100 nM

COCCn1cc(C(=O)NCCc2cccs2)c2c(Cl)cccc21 [Compound 30, 4-Chloro-1-(2-methoxy-ethyl)-1H-indole-3-carboxylic acid (2-thiophen-2-yl-ethyl)-amide]
IC50 [1]: 10 to 100 nM | IC50 [2]: 101 to 500 nM

CC1CCCC(O)(CNC(=O)c2cn(C3COC3)c3cccc(Cl)c23)C1 (stereo not shown) [Compound 83, 4-chloro-N-((1-hydroxy-3-methylcyclohexyl)methyl)-1-(oxetan-3-yl)-1H-indole-3-carboxamide]
IC50 [1, 4]: < 10 nM | IC50 [2]: 10 to 100 nM

O=C(NCC1(O)CCCCC1)c1cn(C2COC2)c2cccc(Cl)c12 [Compound 58, 4-Chloro-1-oxetan-3-yl-1H-indole-3-carboxylic acid (1-hydroxy-cyclohexylmethyl)-amide]
IC50 [1]: 10 to 100 nM | IC50 [2]: 101 to 500 nM

O=C(NCC1(N2CCN(c3ccccc3)CC2)CCOCC1)c1cn(C2COC2)c2cccc(Cl)c12 [Compound 44, 4-chloro-1-(oxetan-3-yl)-N-((4-(4-phenylpiperazin-1-yl)tetrahydro-2H-pyran-4-yl)methyl)-1H-indole-3-carboxamide]
IC50 [1]: 10 to 100 nM | IC50 [2]: 101 to 500 nM

O=C(NCC[C@@H]1C[C@@H]2C=C[C@H]1C2)c1cn(C2COC2)c2cccc(Cl)c12 [Compound 75, 4-Chloro-1-oxetan-3-yl-1H-indole-3-carboxylic acid ((1S,2S,4S)-2-bicyclo[2.2.1]hept-5-en-2-yl-ethyl)-amide]
IC50 [1, 4]: < 10 nM | IC50 [2]: 10 to 100 nM

O=C(NC[C@H]1CCCC(F)(F)C1)c1cn(C2COC2)c2cccc(Cl)c12 [Compound 67, 4-chloro-N—(((S)-3,3-difluorocyclohexyl)methyl)-1-(oxetan-3-yl)-1H-indole-3-carboxamide]
IC50 [1]: 10 to 100 nM | IC50 [2]: 10 to 100 nM

CC1(Cn2cc(C(=O)NCC3CCC(F)(F)CC3)c3c(Cl)cccc32)CCN1 (stereo not shown) [Compound 152, 4-chloro-N-((4,4-difluorocyclohexyl)methyl)-1-((2-methylazetidin-2-yl)methyl)-1H-indole-3-carboxamide]
IC50 [1]: 10 to 100 nM | IC50 [2]: 500 to 999 nM

O=C(NCC1(O)CCC(F)(F)CC1)c1cn(CC2CCCCO2)c2cccc(Cl)c12 (stereo not shown) [Compound 166, 4-chloro-N-((4,4-difluoro-1-hydroxycyclohexyl)methyl)-1-((tetrahydro-2H-pyran-2-yl)methyl)-1H-indole-3-carboxamide]
IC50 [1]: 10 to 100 nM | IC50 [2]: 10 to 100 nM

O=C(NCCC1(O)CCCC1)c1cn(C2COC2)c2cccc(Cl)c12 [Compound 45, 4-chloro-N-(2-(1-hydroxycyclopentyl)ethyl)-1-(oxetan-3-yl)-1H-indole-3-carboxamide]
IC50 [1, 4]: > 1000 nM | IC50 [2, 3]: > 1000 nM

C[C@@H]1CCC[C@](O)(CNC(=O)c2cn(C3COC3)c3cccc(Cl)c23)C1 [Compound 93, 4-chloro-N-(((1R,3R)-1-hydroxy-3-methylcyclohexyl)methyl)-1-(oxetan-3-yl)-1H-indole-3-carboxamide]
IC50 [1, 4]: < 10 nM | IC50 [2]: 10 to 100 nM

O=C(NC[C@@]1(O)CCCC(F)(F)C1)c1cn(CCN2CCCC2)c2cccc(Cl)c12 [Compound 176, (R)-4-chloro-N-((3,3-difluoro-1-hydroxycyclohexyl)methyl)-1-(2-(pyrrolidin-1-yl)ethyl)-1H-indole-3-carboxamide]
IC50 [1, 4]: > 1000 nM | IC50 [2, 3]: > 1000 nM

O=C1CC[C@H](Cn2cc(C(=O)NCC3CCC(F)(F)CC3)c3c(Cl)cccc32)N1 [Compound 162, (R)-4-chloro-N-((4,4-difluorocyclohexyl)methyl)-1-((5-oxopyrrolidin-2-yl)methyl)-1H-indole-3-carboxamide]
IC50 [1]: 10 to 100 nM | IC50 [2]: 10 to 100 nM

O=C(NCC1CCC(F)(F)CC1)c1cn(CC2COCCO2)c2cccc(Cl)c12 (stereo not shown) [Compound 150, 1-((1,4-dioxan-2-yl)methyl)-4-chloro-N-((4,4-difluorocyclohexyl)methyl)-1H-indole-3-carboxamide]
IC50 [1]: 10 to 100 nM | IC50 [2]: 10 to 100 nM

C[C@H]1CCC[C@@](O)(CNC(=O)c2cn(CCC(F)F)c3cccc(Cl)c23)C1 [Compound 7]
IC50 [1, 4]: < 10 nM | IC50 [2]: 10 to 100 nM

O=C1NC[C@H](Cn2cc(C(=O)NCC3CCC(F)(F)CC3)c3c(Cl)cccc32)O1 [Compound 126, (R)-4-chloro-N-((4,4-difluorocyclohexyl)methyl)-1-((2-oxooxazolidin-5-yl)methyl)-1H-indole-3-carboxamide]
IC50 [1]: 10 to 100 nM | IC50 [2]: 10 to 100 nM

CN(C)C(=O)Cn1cc(C(=O)NCC2(O)CCC(F)(F)CC2)c2c(Cl)cccc21 [Compound 205, 4-Chloro-1-dimethylcarbamoylmethyl-1H-indole-3-carboxylic acid (4,4-difluoro-1-hydroxy-cyclohexylmethyl)-amide]
IC50 [1, 4]: < 10 nM | IC50 [2]: 10 to 100 nM

O=C(NCC1(O)CCC(F)(F)CC1)c1cn(C[C@H]2CCCO2)c2cccc(Cl)c12 [Compound 131, (R)-4-chloro-N-((4,4-difluoro-1-hydroxycyclohexyl)methyl)-1-((tetrahydrofuran-2-yl)methyl)-1H-indole-3-carboxamide]
IC50 [1]: 10 to 100 nM | IC50 [2]: 10 to 100 nM

O=C(NCC1CCC(F)(F)CC1)c1cn(C2COC2)c2cccc(Cl)c12 [Compound 94, 4-chloro-N-((4,4-difluorocyclohexyl)methyl)-1-(oxetan-3-yl)-1H-indole-3-carboxamide]
IC50 [1]: 10 to 100 nM | IC50 [2]: 10 to 100 nM

CC(C)N1CC[C@H]1Cn1cc(C(=O)NCC2CCC(F)(F)CC2)c2c(Cl)cccc21 [Compound 191, (S)-4-chloro-N-((4,4-difluorocyclohexyl)methyl)-1-((1-isopropylazetidin-2-yl)methyl)-1H-indole-3-carboxamide]
IC50 [1]: 101 to 500 nM | IC50 [2, 3]: > 1000 nM

CCN(CC)C(=O)Cn1cc(C(=O)NCC2CCC(F)(F)CC2)c2c(Cl)cccc21 [Compound 207, 4-Chloro-1-diethylcarbamoylmethyl-1H-indole-3-carboxylic acid (4,4-difluoro-cyclohexylmethyl)-amide]
IC50 [1]: 10 to 100 nM | IC50 [2]: 101 to 500 nM

O=C(NCC1(O)CCCC(F)(F)C1)c1cn(CC2CNC2)c2cccc(Cl)c12 (stereo not shown) [Compound 125]
IC50 [1]: 10 to 100 nM | IC50 [2]: 10 to 100 nM

O=C(NCC1CCC(F)(F)CC1)c1cn(C[C@@H]2CCCO2)c2cccc(Cl)c12 [Compound 132, (S)-4-chloro-N-((4,4-difluorocyclohexyl)methyl)-1-((tetrahydrofuran-2-yl)methyl)-1H-indole-3-carboxamide]
IC50 [1]: 10 to 100 nM | IC50 [2]: 10 to 100 nM

COCCn1cc(C(=O)NC[C@]2(O)CCC[C@H](C)C2)c2c(Cl)cccc21 [Compound 14, 4-Chloro-1-(2-methoxy-ethyl)-1H-indole-3-carboxylic acid ((1S,3S)-1-hydroxy-3-methyl-cyclohexylmethyl)-amide]
IC50 [1]: 10 to 100 nM

O=C(N[C@@H](CO)C1CCCCC1)c1cn(C2COC2)c2cccc(Cl)c12 [Compound 63, 4-Chloro-1-oxetan-3-yl-1H-indole-3-carboxylic acid ((R)-1-cyclohexyl-2-hydroxy-ethyl)-amide]
IC50 [1, 4]: > 1000 nM

Source: patent US10323000B2, “Indole derivatives and their use in neurodegenerative diseases” (priority 2014, dated 2019)
